Where a name gives a salt, the structure may show the parent alone.
Experiments:
Type in all cases: biochemical
PIM-1 = PIM-1 (Homo sapiens, UniProt P11309); experiment: Enzyme PIM-1 Assay ([33P]ATP incorporation into PIM2tide, filter plate); details: averaged IC50; 35 μM ATP, 7.5 μM PIM2tide, 0.25 nM PIM-1, 60 min at 22° C.
In short: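 Ten-point, 3-fold dilution series (10 μM top, 2% DMSO final) tested for inhibition of 33P transfer from 35 μM ATP to 7.5 μM PIM2tide by 0.25 nM PIM-1. Reaction 60 min, 22 °C, pH 7.4 MOPS/MgCl2 buffer; phosphocellulose capture, scintillation counting, IC50 where fitted POC equals 50.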

[1] = biological target: T1, GST-tagged recombinant full-length human Pim-2 (Homo sapiens, UniProt Q9P1W9); experiment: PIM-2 Assay (as Example A); details: averaged IC50; 4 μM ATP, 1.0 μM PIM2tide, 1.5 nM Pim-2
T1 construct: GST-tagged recombinant full-length human Pim-2; GST
In short: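 IC50 was derived by 4-parameter logistic fitting of percent-of-control data over a 10-point, 3-fold series (highest 10 μM, 2% DMSO). Reactions held 1.5 nM GST-Pim-2 (full-length, human), 4 μM [γ-33P]ATP and 1.0 μM PIM2tide for 60 min at 22 °C, pH 7.4; 33P-peptide captured on P81 filters.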

recombinant rat PIM-3 = recombinant rat PIM-3 (Rattus norvegicus, UniProt O70444); experiment: PIM-3 Assay (as Example A); details: averaged IC50; 30 μM ATP, 3.75 μM PIM2tide, 0.5 nM PIM-3
In short: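 33P incorporation from 30 μM [γ-33P]ATP into 3.75 μM PIM2tide by 0.5 nM rat PIM-3, 60 min at 22 °C in pH 7.4 MOPS buffer, read by P81 filter capture and scintillation counting. Compounds tested in 3-fold dilutions up to 10 μM final, 2% DMSO; percent-of-control data fitted by 4-parameter logistic for IC50.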

Chain of PIM-1 (P11309 whole entry, species assumed): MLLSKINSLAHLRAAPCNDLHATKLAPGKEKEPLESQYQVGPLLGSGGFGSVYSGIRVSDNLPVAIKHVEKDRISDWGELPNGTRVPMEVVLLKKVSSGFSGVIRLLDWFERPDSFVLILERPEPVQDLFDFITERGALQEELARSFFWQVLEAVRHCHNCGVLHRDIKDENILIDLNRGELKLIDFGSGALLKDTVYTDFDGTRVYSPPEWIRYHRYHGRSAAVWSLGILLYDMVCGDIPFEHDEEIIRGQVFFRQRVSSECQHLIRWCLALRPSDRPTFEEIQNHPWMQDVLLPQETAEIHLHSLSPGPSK
T1 sequence (Q9P1W9 whole entry): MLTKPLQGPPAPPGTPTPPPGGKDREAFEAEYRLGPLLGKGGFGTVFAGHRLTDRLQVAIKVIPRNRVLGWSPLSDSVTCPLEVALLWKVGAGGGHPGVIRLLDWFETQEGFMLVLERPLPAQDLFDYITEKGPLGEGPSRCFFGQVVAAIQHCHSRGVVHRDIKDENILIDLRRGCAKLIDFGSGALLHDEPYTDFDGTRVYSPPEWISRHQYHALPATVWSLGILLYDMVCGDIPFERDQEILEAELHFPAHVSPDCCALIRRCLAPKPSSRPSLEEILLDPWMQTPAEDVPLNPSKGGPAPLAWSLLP

SMILES	IC50 (PIM-1)	IC50 [1]	IC50 (recombinant rat PIM-3)
CC(C)Oc1cccc2ccc(-c3nnc4ccc([C@@H](N5C[C@@H](N)[C@H](O)C5)C(F)(F)F)cn34)nc12 [Example 146, (3R,4R)-4-amino-1-((R)-2,2,2-trifluoro-1-(3-(8-isopropoxyquinolin-2-yl)-[1,2,4]triazolo[4,3-a]pyridin-6-yl)ethyl)pyrrolidin-3-ol dihydrochloride]	0.13 nM	34 nM	0.3 nM
CC(C)Oc1cc(F)cc2ccc(-c3nnc4ccc([C@@H](N5C[C@@H](N)[C@H](O)C5)C(F)(F)F)cn34)nc12 [Example 147, (3R,4R)-4-amino-1-((R)-2,2,2-trifluoro-1-(3-(6-fluoro-8-isopropoxyquinolin-2-yl)-[1,2,4]triazolo[4,3-a]pyridin-6-yl)ethyl)pyrrolidin-3-ol dihydrochloride]	0.11 nM	36 nM	0.3 nM
COCCOc1ccc2ccc(-c3nnc4ccc([C@@H](N5CC[C@H](N)C5)C(F)(F)F)cn34)nc2c1 [Example 148, (S)-1-((R)-2,2,2-trifluoro-1-(3-(7-(2-methoxyethoxy)quinolin-2-yl)-[1,2,4]triazolo[4,3-a]pyridin-6-yl)ethyl)pyrrolidin-3-amine dihydrochloride]	0.34 nM	> 100 nM	1.2 nM
COC[C@@H](C)Oc1ccc2ccc(-c3nnc4ccc([C@@H](N5CC[C@H](N)C5)C(F)(F)F)cn34)nc2c1 [Example 149, (S)-1-((R)-2,2,2-trifluoro-1-(3-(7-((R)-1-methoxypropan-2-yloxy)quinolin-2-yl)-[1,2,4]triazolo[4,3-a]pyridin-6-yl)ethyl)pyrrolidin-3-amine dihydrochloride]	0.17 nM	> 100 nM	0.7 nM
COC[C@H](C)Oc1ccc2ccc(-c3nnc4ccc([C@@H](N5CC[C@H](N)C5)C(F)(F)F)cn34)nc2c1 [Example 150, (S)-1-((R)-2,2,2-trifluoro-1-(3-(7-((S)-1-methoxypropan-2-yloxy)quinolin-2-yl)-[1,2,4]triazolo[4,3-a]pyridin-6-yl)ethyl)pyrrolidin-3-amine dihydrochloride]	0.41 nM	> 100 nM	3.5 nM
COCCOc1ccc2ccc(-c3nnc4ccc([C@@H](N5CC[C@H](N)C5)C(F)(F)F)cn34)nc2c1C1CC1 [Example 152, (S)-1-((R)-1-(3-(8-cyclopropyl-7-(2-methoxyethoxy)quinolin-2-yl)-[1,2,4]triazolo[4,3-a]pyridin-6-yl)-2,2,2-trifluoroethyl)pyrrolidin-3-amine dihydrochloride]	0.25 nM	42 nM	0.3 nM
COCCc1cc2nc(-c3nnc4ccc([C@@H](N5CC[C@H](N)C5)C(F)(F)F)cn34)ccc2cc1F [Example 153, (S)-1-((R)-2,2,2-trifluoro-1-(3-(6-fluoro-7-(2-methoxyethyl)quinolin-2-yl)-[1,2,4]triazolo[4,3-a]pyridin-6-yl)ethyl)pyrrolidin-3-amine dihydrochloride]	0.19 nM	> 100 nM	1.6 nM
N[C@H]1CCN([C@H](c2ccc3nnc(-c4ccc5cc(F)c(OC6CCOCC6)cc5n4)n3c2)C(F)(F)F)C1 [Example 156, (S)-1-((R)-2,2,2-trifluoro-1-(3-(6-fluoro-7-(tetrahydro-2H-pyran-4-yloxy)quinolin-2-yl)-[1,2,4]triazolo[4,3-a]pyridin-6-yl)ethyl)pyrrolidin-3-amine hydrochloride]	0.15 nM	38 nM	0.4 nM
N[C@H]1CCN([C@H](c2ccc3nnc(-c4ccc5cc(F)cc(OCC6CC6)c5n4)n3c2)C(F)(F)F)C1 [Example 158, (S)-1-((R)-1-(3-(8-(cyclopropylmethoxy)-6-fluoroquinolin-2-yl)-[1,2,4]triazolo[4,3-a]pyridin-6-yl)-2,2,2-trifluoroethyl)pyrrolidin-3-amine hydrochloride]	0.16 nM	41 nM	1.1 nM
COC[C@@H](C)Oc1cc(F)cc2ccc(-c3nnc4ccc([C@@H](N5CC[C@H](N)C5)C(F)(F)F)cn34)nc12 [Example 159, (S)-1-((R)-2,2,2-trifluoro-1-(3-(6-fluoro-8-((R)-1-methoxypropan-2-yloxy)quinolin-2-yl)-[1,2,4]triazolo[4,3-a]pyridin-6-yl)ethyl)pyrrolidin-3-amine dihydrochloride]	0.14 nM	48 nM	0.5 nM
COC[C@@H](C)Oc1cc2nc(-c3nnc4ccc([C@@H](N5CC[C@H](N)C5)C(F)(F)F)cn34)ccc2cc1F [Example 160, (S)-1-((R)-2,2,2-trifluoro-1-(3-(6-fluoro-7-((R)-1-methoxypropan-2-yloxy)quinolin-2-yl)-[1,2,4]triazolo[4,3-a]pyridin-6-yl)ethyl)pyrrolidin-3-amine dihydrochloride]	0.16 nM	46 nM	0.4 nM
COc1cc2nc(-c3nnc4ccc([C@@H](N5CC(F)[C@H](N)C5)C(F)(F)F)cn34)ccc2cc1F (stereo partly drawn) [Example 162, (3R)-4-fluoro-1-((R)-2,2,2-trifluoro-1-(3-(6-fluoro-7-methoxyquinolin-2-yl)-[1,2,4]triazolo[4,3-a]pyridin-6-yl)ethyl)pyrrolidin-3-amine dihydrochloride]	1.24 nM	> 100 nM	35 nM

Other lines, results leading:

IC50 (PIM-1)	IC50 [1]	IC50 (recombinant rat PIM-3)	SMILES
0.2 nM	90 nM	0.9 nM	COC[C@H](C)Oc1cccc2ccc(-c3nnc4ccc([C@@H](N5CC[C@H](N)C5)C(F)(F)F)cn34)nc12 [Example 141, (S)-1-((R)-2,2,2-trifluoro-1-(3-(8-((S)-1-methoxypropan-2-yloxy)quinolin-2-yl)-[1,2,4]triazolo[4,3-a]pyridin-6-yl)ethyl)pyrrolidin-3-amine dihydrochloride]
0.09 nM	44 nM	0.5 nM	CC(C)Oc1ccc2ccc(-c3nnc4ccc([C@@H](N5CC[C@H](N)C5)C(F)(F)F)cn34)nc2c1 [Example 142, (S)-1-((R)-2,2,2-trifluoro-1-(3-(7-isopropoxyquinolin-2-yl)-[1,2,4]triazolo[4,3-a]pyridin-6-yl)ethyl)pyrrolidin-3-amine dihydrochloride]
0.09 nM	38 nM	0.5 nM	COc1ccc2ccc(-c3nnc4ccc([C@@H](N5CC[C@H](N)C5)C(F)(F)F)cn34)nc2c1C1CC1 [Example 143, (S)-1-((R)-1-(3-(8-cyclopropyl-7-methoxyquinolin-2-yl)-[1,2,4]triazolo[4,3-a]pyridin-6-yl)-2,2,2-trifluoroethyl)pyrrolidin-3-amine dihydrochloride]
0.95 nM	48 nM	1 nM	CC1Cc2c(ccc3ccc(-c4nnc5ccc([C@@H](N6CC[C@H](N)C6)C(F)(F)F)cn45)nc23)O1 (stereo partly drawn) [Example 144, (3S)-1-((1R)-2,2,2-trifluoro-1-(3-(8-methyl-8,9-dihydrofuro[2,3-h]quinolin-2-yl)-[1,2,4]triazolo[4,3-a]pyridin-6-yl)ethyl)pyrrolidin-3-amine dihydrochloride]
0.25 nM	30 nM	0.7 nM	CC(C)(C)c1cccc2ccc(-c3nnc4ccc([C@@H](N5C[C@@H](N)[C@H](O)C5)C(F)(F)F)cn34)nc12 [Example 145, (3R,4R)-4-amino-1-((R)-1-(3-(8-tert-butylquinolin-2-yl)-[1,2,4]triazolo[4,3-a]pyridin-6-yl)-2,2,2-trifluoroethyl)pyrrolidin-3-ol dihydrochloride]
0.49 nM	85 nM	1 nM	CC(C)Oc1ccc2ccc(-c3nnc4ccc([C@@H](N5CC[C@H](N)C5)C(F)(F)F)cn34)nc2c1C1CC1 [Example 151, (S)-1-((R)-1-(3-(8-cyclopropyl-7-isopropoxyquinolin-2-yl)-[1,2,4]triazolo[4,3-a]pyridin-6-yl)-2,2,2-trifluoroethyl)pyrrolidin-3-amine dihydrochloride]
3.44 nM	239 nM	12 nM	N[C@H]1CCN([C@H](c2ccc3nnc(-c4ccc5cc(F)c(O)cc5n4)n3c2)C(F)(F)F)C1 [Example 157, 2-(6-((R)-1-((S)-3-aminopyrrolidin-1-yl)-2,2,2-trifluoroethyl)-[1,2,4]triazolo[4,3-a]pyridin-3-yl)-6-fluoroquinolin-7-ol hydrochloride]
0.23 nM	> 100 nM	1.9 nM	N[C@H]1CCN([C@H](c2ccc3nnc(-c4ccc5cccc(C(F)(F)F)c5n4)n3c2)C(F)(F)F)C1 [Example 161, (S)-1-((R)-2,2,2-trifluoro-1-(3-(8-(trifluoromethyl)quinolin-2-yl)-[1,2,4]triazolo[4,3-a]pyridin-6-yl)ethyl)pyrrolidin-3-amine dihydrochloride]
0.3 nM	> 100 nM	10 nM	N[C@H]1CCN([C@H](c2ccc3nnc(-c4ccc5cc(F)cc(O)c5n4)n3c2)C(F)(F)F)C1 [Example 163, 2-(6-((R)-1-((S)-3-aminopyrrolidin-1-yl)-2,2,2-trifluoroethyl)-[1,2,4]triazolo[4,3-a]pyridin-3-yl)-6-fluoroquinolin-8-ol hydrochloride]
